These results are taken from PMC11992618, “Development of cyclopeptide inhibitors specifically disrupting FXR–coactivator interaction in the intestine as a novel therapeutic strategy for MASH” (Life Metabolism, 2025).

One series addresses T1, PPARα (Homo sapiens, UniProt Q07869).
T1 sequence (Q07869 1-468): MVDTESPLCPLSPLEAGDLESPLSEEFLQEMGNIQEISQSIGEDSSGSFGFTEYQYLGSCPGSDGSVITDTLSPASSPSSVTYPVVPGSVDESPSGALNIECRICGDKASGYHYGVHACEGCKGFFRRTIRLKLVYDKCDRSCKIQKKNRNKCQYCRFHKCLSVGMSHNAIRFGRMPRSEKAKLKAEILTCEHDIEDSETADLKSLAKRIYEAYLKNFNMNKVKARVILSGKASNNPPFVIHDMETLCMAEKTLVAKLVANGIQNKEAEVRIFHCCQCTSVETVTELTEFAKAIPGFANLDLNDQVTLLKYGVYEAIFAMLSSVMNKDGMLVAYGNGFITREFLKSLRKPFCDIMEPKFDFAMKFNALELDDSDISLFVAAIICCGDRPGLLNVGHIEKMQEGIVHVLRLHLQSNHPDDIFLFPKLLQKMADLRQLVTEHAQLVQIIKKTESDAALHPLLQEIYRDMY
Kind of series: PPARα cell-based reporter assay. Particulars: 10 μmol/L; inhibition of agonist-induced receptor activation. From the text:
Inhibition% means inhibition percentage of agonist-induced receptor activation.
(A reporter such as luciferase makes a cellular process visible.)

The test system of series [1] is GAN diet-induced MASH in Fxr^△IE mice. In words: GAN diet-fed Fxr^△IE mice. Particulars: GAN diet 20 weeks, oral 10 mg/kg daily for 8 weeks. The format is in vivo, mouse. The procedure: For the long-term MASH model, 8- to 10-week-old male C57BL/6 J mice were fed with an MCS diet or MCD diet for 2 weeks, before the MCD models were administered with vehicle or GUDCA (50 mg/kg), OCA (30 mg/kg), and DC646 (10 mg/kg) for 4 weeks. The serum, liver, and intestine were collected 2 h after the final dosing. Male Fxr^△IE mice (8–10 weeks old) were fed with a GAN diet for 20 weeks and administered with vehicle or DC646 (10 mg/kg) from the 12th week for 8 weeks. The serum, liver, and intestine were collected 2 h after the final dosing.
Hepatic TG and TC, and plasma ALT and AST levels were measured using commercial kits from Nanjing Jiancheng Bioengineering Institute according to the manufacturer’s instructions. To measure hepatic TG contents, liver tissues (~10 mg) were homogenized in 100 μL 1% TritonX-100 and centrifuged at 3000 rpm for 10 min. […] Hepatic TG or TC levels were read at 510 or 500 nm using a microplate reader (Versamax, Molecular Devices) and normalized using the protein concentration. […] The data were acquired using the kinetic mode with an interval of 30 s and 31 total reads at 340 nm using a microplate reader (Versamax, Molecular Devices).
Tissue specimens were fixed in 10% formalin for 12–24 h before being dehydrated and paraffin-embedded. […] At least three discontinuous liver sections were evaluated for each mouse.

Series [2] in a line: Water solubility (co-crystallisation attempts). The format is physicochemical. The protocol: To explore the molecular mechanism underlying DC646-mediated FXR antagonism, we determined the structure of the DC646 by X-ray crystal analysis (Supplementary Fig. S5). We also made efforts to co-crystalize DC646 with hFXRα-LBD. […] As an alternative, the AlphaScreen assay was conducted to investigate the mechanism (Fig. 3a).

SMILES strings stand for the structures.

In general, inhibition refers to the drop in the measured response relative to a control, in per cent.

With `CC(C)C[C@@H]1NC(=O)[C@@H]2CN(CCO2)c2cccc3c2c(cn3[Si](C(C)C)(C(C)C)C(C)C)C[C@H](NS(=O)(=O)C(F)(F)F)C(=O)OCCCCNC(=O)[C@H](CC(C)C)NC(=O)[C@@H]2CN(CCO2)c2cccc3c2c(cn3[Si](C(C)C)(C(C)C)C(C)C)C[C@H](NS(=O)(=O)C(F)(F)F)C(=O)OCCCCNC1=O` [DC646, N,N'-((1^2R,1^4S,16^2R,16^4S,4R,13R,19R,28R)-13,28-diisobutyl-5,12,15,20,27,30-hexaoxo-2^1,17^1-bis(triisopropylsilyl)-2^1H,17^1H-6,21-dioxa-11,14,26,29-tetraaza-1(4,2),16(2,4)-dimorpholina-2,17(4,3)-diindolacyclotriacontaphane-4,19-diyl)bis(1,1,1-trifluoromethanesulfonamide)], the inhibition at 10 µM at PPARα is -1.3%. Further, in series [1], the “Liver/body weight ratio, serum ALT, serum AST, liver TG, liver TC and NAS score” value is listed as “did not reduce”; the “mRNA levels of genes in the intestinal FXR signaling” value was “no difference”. In addition, the Water solubility result in series [2] is recorded as “poor water solubility”.
